Assay results as given in US20050152857A1, “Method and preparation for reducing sunburn cell formation in skin” (PCR Technology Holdings, LC, priority 2004, published 2005).

Experiments:
[1] = system: sensitivity of skin to UV light; conditions: cited from earlier work
[2] = system: sunburn cells in human skin; test: 2-week human sun burn cell assay study with glycolic acid compositions (Formulas 4-5, 1.5 MED solar simulator); format: in vivo; conditions: compared with normal, untreated skin, UV-exposed
From the text: The idebenone-containing Formula 4 and the placebo Formula 5 of Example 3 were applied to human skin in a 2-week human sun burn cell assay study.
The panel composition was six different healthy adult volunteers between the ages of 18 and 53. All were in excellent health, and without any significant internal or dermatological diseases. The subjects were carefully screened to insure they were not taking any medications.
The subjects were given detailed instructions to avoid any direct exposure to sunlight and to minimize any incidental exposure to their backs for the entire duration of the study. […]
The light source used was a 150 watt xenon arc solar simulator equipped with a UV reflecting diachronic mirror and a 1 mm thick Schott WG-320 filter to produce simulation of the solar spectrum. […] Total irradiance at skin level was measured with a calibrated Eppley Thermopile and the UVB component was monitored with a UVB radiometer (International Light Inc, Newburyport, Mass.). […]
Two days prior to the end of the study, the MED (minimal erythema dose) for each subject was determined by exposing several normal untreated skin sites over the midback area to a series of exposures in 25% dose increments from the solar simulator. […] The MED was recorded in the appropriate case record form. […]

SMILES	sensitivity of skin to UV light, sunburn cell induction ([1]; 10% glycolic acid (pH 3.5) once daily, 6 days per week, 4 weeks, 1.5 MED, 29 Caucasian subjects)	duration of photosensitivity after terminating treatments ([1]; 10% glycolic acid (pH 3.5), after 4 weeks of treatment)	prevention of the increase in sun sensitivity / sunburn cell formation produced by 10 wt. % glycolic acid [2]
O=C(O)CO [glycolic acid]	enhanced sensitivity to UV light, including increased sunburn cell induction	reversed within a week of terminating treatments	
COC1=C(OC)C(=O)C(CCCCCCCCCCO)=C(C)C1=O [idebenone, 6-(10-hydroxydecyl)-2,3-dimethoxy-5-methyl-1,4-benzoquinone]			prevented the increase in formation of sunburn cells
